Measured values taken from US20110177161A1, “PHARMACEUTICAL COMPOSITIONS OF [5(S)-(2'-HYDROXYETHOXY)-20(S)-CAMPTOTHECIN” (DR. REDDY'S LABORATORIES LIMITED, priority 2007, published 2011).

Assays:
[1] = biological target: T1, Topoisomerase I (Homo sapiens, UniProt P11387); assay: Topoisomerase assay (TopoGEN Topo I Drug Screening Kit); type: biochemical
T1 construct: purchased Topogen, Inc., Port Orange, Fla
T1 sequence (P11387 1-765): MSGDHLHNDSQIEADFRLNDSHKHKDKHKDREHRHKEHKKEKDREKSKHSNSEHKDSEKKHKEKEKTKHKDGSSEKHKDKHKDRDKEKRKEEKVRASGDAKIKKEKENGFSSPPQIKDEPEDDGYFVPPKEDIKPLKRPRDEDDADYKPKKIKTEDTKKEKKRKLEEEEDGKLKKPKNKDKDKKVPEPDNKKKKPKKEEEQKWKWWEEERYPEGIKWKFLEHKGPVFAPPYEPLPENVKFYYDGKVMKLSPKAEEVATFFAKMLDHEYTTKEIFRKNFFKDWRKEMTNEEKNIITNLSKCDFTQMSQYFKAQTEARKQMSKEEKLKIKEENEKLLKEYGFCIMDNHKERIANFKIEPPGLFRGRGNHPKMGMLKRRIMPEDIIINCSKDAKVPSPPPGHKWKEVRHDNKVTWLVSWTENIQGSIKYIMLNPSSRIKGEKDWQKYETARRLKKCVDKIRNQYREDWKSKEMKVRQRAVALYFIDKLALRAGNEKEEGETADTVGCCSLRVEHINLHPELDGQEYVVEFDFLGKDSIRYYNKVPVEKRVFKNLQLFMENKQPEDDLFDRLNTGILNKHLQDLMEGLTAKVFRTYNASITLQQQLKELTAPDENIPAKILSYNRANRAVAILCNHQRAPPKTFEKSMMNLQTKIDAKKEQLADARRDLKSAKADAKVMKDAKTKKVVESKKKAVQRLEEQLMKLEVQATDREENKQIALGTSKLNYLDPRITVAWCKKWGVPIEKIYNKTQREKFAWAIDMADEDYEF
Source text: Topoisomerase I introduces transient nicks in DNA at specific sites. Detection of these transient DNA nicks requires trapping the enzyme on DNA in a nicked intermediate complex using protein denaturants. The resulting covalent DNA/top I complexes contain nicked open circular DNA which can be detected by agarose gel electrophoresis (with ethidium bromide). Trapping nicked intermediates is relatively inefficient, however, inhibitors, such as the natural product camptothecin, stabilize the intermediate and lead to an increase in the nicked DNA product. This forms the basis for a mechanistic drug screen designed to allow detection of agents that affect topoisomerase I by stabilizing the cleaved intermediate complex.
The TopoGEN Topo I Drug Screening Kit (Topogen, Inc., Port Orange, Fla.) is designed to allow the investigator to quickly identify novel inhibitors of topoisomerase I. The kit allows the detection of novel compounds that either stabilize the nicked intermediate or otherwise inhibit catalytic activity of topoisomerase I.
The above reaction mixture is incubated at 37 degree C. for 30 minutes. The reaction is terminated by adding 2 μl of 10% SDS and the mixture is vortexed rapidly (SDS should be added while at 37 degree C. as cooling the tubes might reseal the nicked DNA). 10× Dye, about 2.5 μl per tube, is added and equal volumes of a mixture of chloroform and isoamyl alcohol (24:1) is added and centrifuged at 13000 rpm for 10 minutes. Samples are loaded on a 1% agarose gel and electrophoresed for 1 hour at 80 volts. The gel was viewed on UV transilluminator and the densitometric estimation of the bands was calculated.
The density of the DNA bands of both super coiled and relaxed forms of DNA was measured using the densitometer. The band intensity of treated (with single concentration of the test drug) and without the drug (i.e., the Control) were recorded. The percentage of relaxed form DNA compared to the supercoiled DNA was calculated for all the lanes including treated and control. • % inhibition of Topoisomerase activity was calculated as: […]

[2] = test system: Saos-2 cells over expressing functional BCRP#4; assay: cells; type: cell-based, human; settings: for IC50: Homo sapiens, SAOS-2, 144 h, read-out: BCRP mut#4 (IC50 (nM))
Description: (§1) The anticancer effect of 5(S)-(2′-hydroxyethoxy)-20(S)-camptothecin & 5(R)-(2′-hydroxyethoxy)-20(S)-camptothecin were evaluated versus the racemate 5(RS)-(2′-hydroxyethoxy)-20(S)-camptothecin on Saos-2 cells over expressing functional BCRP#4 and non-functional BCRP mut#10. The human osteosarcoma cell line, Saos-2, was obtained from ATCC (American Type Culture Collection, Cat#HTB-85, Manassas, Va.) and were maintained in DMEM containing 10% fetal bovine serum, 1% penicillin/streptomycin, and 2 mM glutamine. Saos-2 cells were transfected with either BCRP#4 to over express functional BCRP or BCRP#10 to over express non-functional BCRP transporter. The cells were plated in 96-well plates at a density of 1000 cells per each well in a 0.1 ml of medium and allowed to attach overnight. The next morning the medium was gently aspirated and serial dilutions of the compounds to be tested were added. The cells were incubated at 37° C. in a 5% CO2 incubator. After 6 days of exposure to the test drugs, 10µl of Alamar blue was added aseptically to each well and the plates were returned to the incubator for 6 hr. The amount of the fluorescent dye produced was measured on a Cytofluor.RTM. 2300 (Millipore, Bedford, Mass.) using an excitation wavelength of 530 nm and emission wavelength of 590 nm. The relative fluorescence units obtained were used to calculate the percentage growth at each concentration in relation to the untreated control values. From the percentage growth values the IC50 (inhibitory concentration required to inhibit the cell growth by 50% compared to control cells growth) values were derived.

[3] = test system: Saos-2 cells over expressing non-functional BCRP mut#10; assay: cells; type: cell-based, human; settings: for IC50: Homo sapiens, SAOS-2, 144 h, read-out: BCRP mut#10 (IC50 (nM))
Description: as §1

SMILES | IC50 [1] | IC50 [2] | IC50 [3] | fold more active than 5(R)-(2′-hydroxyethoxy)-20(S)-camptothecin in inhibiting topoisomerase I [1] | times more active than 5(RS)-(2′-hydroxyethoxy)-20(S)-camptothecin in inhibiting topoisomerase I [1] | fold more cytotoxic than 5(R)-(2′-hydroxyethoxy)-20(S)-camptothecin [2] | fold more cytotoxic than 5(R)-(2′-hydroxyethoxy)-20(S)-camptothecin [3]
CC[C@@]1(O)C(=O)OCc2c1cc1n(c2=O)C(OCCO)c2cc3ccccc3nc2-1 (mixture of isomers) [5(RS)-(2′-hydroxyethoxy)-20(S)-camptothecin, reference compound] | 12500 nM | 1260 nM | 387 nM | – | – | – | –
CC[C@@]1(O)C(=O)OCc2c1cc1n(c2=O)[C@@H](OCCO)c2cc3ccccc3nc2-1 [DRF-(5S,20S)-1042, 5(S)-(2′-hydroxyethoxy)-20(S)-camptothecin] | – | 788 nM | 213 nM | about 21 fold | about 12 times | > 2.5 fold | ~6 fold
